The record followed here is ChEMBL document CHEMBL5230112, “Covalent inhibitors of GAPDH: From unspecific warheads to selective compounds” (Eur J Med Chem, 2020).

Test [1] concerns the target Glyceraldehyde-3-phosphate dehydrogenase (Oryctolagus cuniculus) (UniProt P46406). Nature of the test: Inhibition of rabbit muscle GAPDH at 0.5 mM incubated for 24 hrs relative to control.
The target in test [2] is T1, Glyceraldehyde-3-phosphate dehydrogenase (Homo sapiens, UniProt P04406). Nature of the test: Irreversible inhibition of GAPDH (unknown origin) assessed as ratio of Kinact/Ki.
Target sequence in this assay (P04406 2-335 limits assumed): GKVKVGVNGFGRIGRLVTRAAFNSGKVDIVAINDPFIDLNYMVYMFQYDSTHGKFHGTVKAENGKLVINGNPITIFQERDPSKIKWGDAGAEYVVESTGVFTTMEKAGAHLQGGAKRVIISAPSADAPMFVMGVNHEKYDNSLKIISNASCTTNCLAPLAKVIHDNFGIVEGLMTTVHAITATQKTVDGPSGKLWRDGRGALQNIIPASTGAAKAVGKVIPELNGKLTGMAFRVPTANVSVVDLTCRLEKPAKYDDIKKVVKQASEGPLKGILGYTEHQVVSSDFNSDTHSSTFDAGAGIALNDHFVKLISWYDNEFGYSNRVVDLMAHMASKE
Test [3] addresses T1, Glyceraldehyde-3-phosphate dehydrogenase. Nature of the test: Inhibition of GAPDH (unknown origin) measured after 1 hr.
Target sequence in this assay (P04406 whole entry): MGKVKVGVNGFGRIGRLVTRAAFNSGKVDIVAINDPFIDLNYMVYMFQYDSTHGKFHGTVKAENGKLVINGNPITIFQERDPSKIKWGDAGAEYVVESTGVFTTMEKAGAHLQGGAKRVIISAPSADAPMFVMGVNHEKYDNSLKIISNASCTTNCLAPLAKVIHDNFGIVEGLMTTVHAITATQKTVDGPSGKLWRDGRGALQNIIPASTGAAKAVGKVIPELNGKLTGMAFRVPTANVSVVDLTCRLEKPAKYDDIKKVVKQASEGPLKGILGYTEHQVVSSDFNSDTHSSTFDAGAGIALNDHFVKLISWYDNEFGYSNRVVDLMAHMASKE
In test [4] the test system is Saccharomyces cerevisiae. Briefly: Irreversible inhibition of yeast GAPDH holoenzyme.
The target of test [5] is T1, Glyceraldehyde-3-phosphate dehydrogenase. Briefly: Irreversible inhibition of GAPDH (unknown origin) assessed as ratio of Kinact/Ki at fast phase.
Target sequence in this assay (P04406 2-335 limits assumed): as the sequence (P04406 2-335 limits assumed) above
Test [6] shares this target. Nature of the test: Irreversible inhibition of GAPDH (unknown origin) assessed as ratio of Kinact/Ki at slow phase.
Target sequence in this assay (P04406 2-335 limits assumed): as above
The target is the same in test [7]. Nature of the test: Inhibition of human GAPDH.
Target sequence in this assay (P04406 2-335 limits assumed): as above

Glyceraldehyde-3-phosphate dehydrogenase (Oryctolagus cuniculus), sequence (P46406 whole entry, looked up): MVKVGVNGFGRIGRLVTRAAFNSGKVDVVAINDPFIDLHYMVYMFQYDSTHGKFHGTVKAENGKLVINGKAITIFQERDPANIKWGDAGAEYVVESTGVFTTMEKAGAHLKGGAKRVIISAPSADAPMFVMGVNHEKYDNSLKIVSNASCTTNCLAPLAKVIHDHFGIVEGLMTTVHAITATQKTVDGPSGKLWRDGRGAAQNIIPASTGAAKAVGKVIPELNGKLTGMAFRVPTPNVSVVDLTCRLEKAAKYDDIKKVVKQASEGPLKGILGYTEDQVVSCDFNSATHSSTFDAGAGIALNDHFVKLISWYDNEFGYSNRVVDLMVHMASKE

A word on the inhibition: it is the drop in the measured response relative to a control, in per cent. A higher inhibition goes with a response far below the control. As to `O=C(O)/C=C/C(=O)O`, the inhibition in test [1] amounted to 20%.
Regarding `C=CC(C)=O`, the Ratio in test [2] was found to be 128 M⁻¹ s⁻¹.
For orientation: IC50 means the concentration at which inhibition is half-maximal. A high value points to lower potency. `CCCCCC(O)/C=C/C=O` (stereo not given) [4-HYDROXYNON-2-ENAL] had an IC50 in test [3] of 50 µM.
On the same count and under the same terms, with `CCC(O)/C=C/C=O` (stereo not given) the figure was 39.1 µM.
Take `O=C(CCl)P(=O)(O)O`: in test [4], the K is 2.8 10^4/M/s.
As for `COC(=O)/C=C/C(=O)OC`, the Ratio amounted to 18.3 M⁻¹ s⁻¹ in test [5] and 10.9 M⁻¹ s⁻¹ in test [6].
For `O=C(CBr)P(=O)(O)O`, the K is 3.5 10^4/M/s in test [7] and 5.4 10^4/M/s in test [4].
With `C=CC#N`, the Ratio in test [2] was determined as 9.2 M⁻¹ s⁻¹.
